# Measured values taken from patent US6303619A, “Meta-substituted acidic 8-phenylxanthine antagonists of A3 human adenosine receptors” (priority 1998, dated 2001).
# Key:
# [1] = molecular target: T1, human A1 adenosine receptor (Homo sapiens, UniProt P30542); test: competition binding, recombinant human A1 adenosine receptor; conditions: A3 versus A1
# T1 construct: expressed in transfected cells; host or cells: COS7 or CHO cells
# T1 sequence (P30542 1-326): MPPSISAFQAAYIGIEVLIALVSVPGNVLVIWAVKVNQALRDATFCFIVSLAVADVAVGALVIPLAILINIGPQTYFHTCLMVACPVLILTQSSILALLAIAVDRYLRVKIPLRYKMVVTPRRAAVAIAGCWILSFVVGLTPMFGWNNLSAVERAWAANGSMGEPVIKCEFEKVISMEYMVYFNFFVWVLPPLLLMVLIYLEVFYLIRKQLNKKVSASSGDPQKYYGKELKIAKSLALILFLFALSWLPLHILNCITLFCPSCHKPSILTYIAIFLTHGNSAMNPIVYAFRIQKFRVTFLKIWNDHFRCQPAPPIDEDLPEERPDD
# Experimental: (§1) Monolayer cell culture of transfected COS7 cells were dissociated with 1 mM EDTA in phosphate buffered saline and resuspended in 5 mM Tris, pH7.6/10 mM MgCl2. The cells were subjected to freeze-thaw lysis and the suspension was homogenized in a glass dounce homogenizer. The membranes were pelleted, resuspended in binding buffer, 50 mM Tris pH 7.6/10 mM MgCl2 and incubated with adenosine deaminase before the binding assay. The binding assay was performed by incubating 50-100 Fg of membranes with increasing concentrations of radiolabeled adenosine agonists. Bound ligand was separated from free ligand by filtration on a SKATRON CELL […] equipped with a receptor binding filtermat. Bound radioactivity was measured by scintillation counting. Substances which bind to or enhance binding to expressed human adenosine receptors in COS and CHO cells can be identified in competition binding assays with radiolabeled adenosine or xanthine analogs. […] Protein concentration was determined by tie method of Bradford ((1976) Anal. Biochem. 72: 248-250). […] Bound radioactivity was measured by scintillation counting in READY SAFE SCINTILLATION COCKTAIL (BECKMAN). […] Non-specific binding was determined in the presence of 100 FM CPA. Bound radioactivity was measured by scintillation counting in READY SAFE LIQUID SCINTILLATION COCKTAIL (BECKMAN).
# [2] = molecular target: T2, human A2A adenosine receptor (Homo sapiens, UniProt P29274); test: competition binding, recombinant human A2A adenosine receptor; conditions: A3 versus A2A
# T2 construct: expressed in transfected cells; host or cells: COS7 cells
# Experimental: as §1
# T2 sequence (P29274 whole entry): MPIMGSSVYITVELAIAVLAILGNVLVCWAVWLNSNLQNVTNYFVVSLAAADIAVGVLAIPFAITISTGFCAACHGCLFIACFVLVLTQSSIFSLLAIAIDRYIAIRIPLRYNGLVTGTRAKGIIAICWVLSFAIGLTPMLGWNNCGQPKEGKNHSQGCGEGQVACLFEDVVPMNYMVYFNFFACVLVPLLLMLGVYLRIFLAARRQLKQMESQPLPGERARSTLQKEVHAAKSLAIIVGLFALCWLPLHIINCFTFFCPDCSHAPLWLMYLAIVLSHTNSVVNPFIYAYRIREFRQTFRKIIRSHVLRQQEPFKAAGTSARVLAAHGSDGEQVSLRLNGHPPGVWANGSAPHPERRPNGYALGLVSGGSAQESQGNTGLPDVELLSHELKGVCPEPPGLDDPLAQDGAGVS
compound,measurement,setting,value
CCCn1c(=O)c2[nH]c(-c3cccc(C=CC(=O)O)c3)nc2n(CCC)c1=O [BW-3911],fold selectivity for A3 compared to human A1,[1],47 fold
same,fold selectivity for A3 compared to human A2A,[2],18 fold
